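Protocol summary: plate cells (96-well), add compound at 5 concentrations, incubate 48 h, interpolate endpoints linearly. The concentration for 50% growth inhibition is given as GI50.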 The source made the active and inactive calls. Rule as the data show it: active = GI50 up to about 1.1 µM and inactive = higher.
Columns and labels:
Experiment in all cases: NCI anticancer screen, dose series, 48 h
T47D = test system: T47D
EKVX = test system: EKVX
ACHN = test system: ACHN
OVCAR-4 = test system: OVCAR-4
SF-295 = test system: SF-295
NCI-H226 = test system: NCI-H226
HOP-92 = test system: HOP-92
NCI/ADR-RES = test system: NCI/ADR-RES
HCT-15 = test system: HCT-15
HCC 2998 = test system: HCC 2998
TK-10 = test system: TK-10
BT-549 = test system: BT-549
RPMI-8226 = test system: RPMI-8226
SK-OV-3 = test system: SK-OV-3
SNB-75 = test system: SNB-75
HCT-116 = test system: HCT-116
A549 = test system: A549
SR = test system: SR
OVCAR-5 = test system: OVCAR-5
Malme-3M = test system: Malme-3M
A498 = test system: A498
CCRF-CEM = test system: CCRF-CEM
786-0 = test system: 786-0
SF-268 = test system: SF-268
HT-29 = test system: HT-29
UO-31 = test system: UO-31
MCF7 = test system: MCF7
SW-620 = test system: SW-620
OVCAR-3 = test system: OVCAR-3
MOLT-4 = test system: MOLT-4
PC-3 = test system: PC-3
COLO 205 = test system: COLO 205
OVCAR-8 = test system: OVCAR-8
Hs-578T = test system: Hs-578T
UACC-257 = test system: UACC-257
MDA-MB-435 = test system: MDA-MB-435
U-251 = test system: U-251
IGROV-1 = test system: IGROV-1
NCI-H460 = test system: NCI-H460
CAKI-1 = test system: CAKI-1
RXF 393 = test system: RXF 393
KM12 = test system: KM12
M14 = test system: M14
SK-MEL-28 = test system: SK-MEL-28
HOP-62 = test system: HOP-62
SN12C = test system: SN12C
MDA-N = test system: MDA-N
SNB-19 = test system: SNB-19
SK-MEL-5 = test system: SK-MEL-5
MDA-MB-231 = test system: MDA-MB-231
DU-145 = test system: DU-145
UACC-62 = test system: UACC-62
SK-MEL-2 = test system: SK-MEL-2
NCI-H23 = test system: NCI-H23
HL-60 = test system: HL-60
SF-539 = test system: SF-539
LOX IMVI = test system: LOX IMVI
K562 = test system: K562
NCI-H522 = test system: NCI-H522

How did the GI50 (T47D) turn out when Cn1c2c(c3ccccc31)CC(=O)N1CCCCC1C21OCCO1 (configuration not stated) was run?
Its GI50 is > 100000 nM (inactive).

And the GI50 (EKVX)?
The GI50 was > 100000 nM (inactive).

What about the GI50 (ACHN) of the same compound?
The GI50 was > 100000 nM (inactive).

What about the GI50 (OVCAR-4) of the same compound?
Its GI50 is > 100000 nM (inactive).

What about the GI50 (SF-295) of the same compound?
The GI50 was > 100000 nM (inactive).

And the GI50 (NCI-H226)?
The GI50 was > 100000 nM (inactive).

And the GI50 (HOP-92)?
The GI50 was > 100000 nM (inactive).

What about the GI50 (NCI/ADR-RES) of the same compound?
The GI50 was > 100000 nM (inactive).

What about the GI50 (HCT-15) of the same compound?
Its GI50 is greater than 100000 nM.

And the GI50 (HCC 2998)?
The GI50 was > 100000 nM (inactive).

And the GI50 (TK-10)?
Its GI50 is > 100000 nM (inactive).

What about the GI50 (BT-549) of the same compound?
Its GI50 is > 100000 nM (inactive).

And the GI50 (RPMI-8226)?
The GI50 was > 100000 nM (inactive).

What about the GI50 (SK-OV-3) of the same compound?
The GI50 was > 100000 nM (inactive).

And the GI50 (SNB-75)?
Its GI50 is > 100000 nM (inactive).

What about the GI50 (HCT-116) of the same compound?
Its GI50 is > 100000 nM (inactive).

And the GI50 (A549)?
The GI50 was > 100000 nM (inactive).

And the GI50 (SR)?
Its GI50 is > 100000 nM (inactive).

What about the GI50 (OVCAR-5) of the same compound?
Its GI50 is > 100000 nM (inactive).

What about the GI50 (Malme-3M) of the same compound?
The GI50 was > 100000 nM (inactive).

And the GI50 (A498)?
Its GI50 is > 100000 nM (inactive).

What about the GI50 (CCRF-CEM) of the same compound?
The GI50 was > 100000 nM (inactive).

What about the GI50 (786-0) of the same compound?
Its GI50 is > 100000 nM (inactive).

What about the GI50 (SF-268) of the same compound?
Its GI50 is > 100000 nM (inactive).

And the GI50 (HT-29)?
The GI50 was > 100000 nM (inactive).

What about the GI50 (UO-31) of the same compound?
Its GI50 is > 100000 nM (inactive).

What about the GI50 (MCF7) of the same compound?
Its GI50 is > 100000 nM (inactive).

What about the GI50 (SW-620) of the same compound?
Its GI50 is > 100000 nM (inactive).

And the GI50 (OVCAR-3)?
Its GI50 is > 100000 nM (inactive).

And the GI50 (MOLT-4)?
Its GI50 is > 100000 nM (inactive).

And the GI50 (PC-3)?
Its GI50 is > 100000 nM (inactive).

And the GI50 (COLO 205)?
The GI50 was > 100000 nM (inactive).

And the GI50 (OVCAR-8)?
The GI50 was > 100000 nM (inactive).

And the GI50 (Hs-578T)?
The GI50 was > 100000 nM (inactive).

And the GI50 (UACC-257)?
The GI50 was > 100000 nM (inactive).

What about the GI50 (MDA-MB-435) of the same compound?
The GI50 was > 100000 nM (inactive).

What about the GI50 (U-251) of the same compound?
The GI50 was > 100000 nM (inactive).

And the GI50 (IGROV-1)?
The GI50 was > 100000 nM (inactive).

And the GI50 (NCI-H460)?
The GI50 was > 100000 nM (inactive).

What about the GI50 (CAKI-1) of the same compound?
The GI50 was > 100000 nM (inactive).

And the GI50 (RXF 393)?
The GI50 was > 100000 nM (inactive).

What about the GI50 (KM12) of the same compound?
The GI50 was > 100000 nM (inactive).

What about the GI50 (M14) of the same compound?
Its GI50 is > 100000 nM (inactive).

And the GI50 (SK-MEL-28)?
Its GI50 is > 100000 nM (inactive).

And the GI50 (HOP-62)?
Its GI50 is > 100000 nM (inactive).

And the GI50 (SN12C)?
Its GI50 is > 100000 nM (inactive).

And the GI50 (MDA-N)?
The GI50 was > 100000 nM (inactive).

And the GI50 (SNB-19)?
Its GI50 is > 100000 nM (inactive).

And the GI50 (SK-MEL-5)?
Its GI50 is > 100000 nM (inactive).

And the GI50 (MDA-MB-231)?
The GI50 was > 100000 nM (inactive).

And the GI50 (DU-145)?
Its GI50 is > 100000 nM (inactive).

And the GI50 (UACC-62)?
Its GI50 is > 100000 nM (inactive).

And the GI50 (SK-MEL-2)?
Its GI50 is > 100000 nM (inactive).

What about the GI50 (NCI-H23) of the same compound?
The GI50 was > 100000 nM (inactive).

What does the source list for Clc1ccc(CCN(CCc2ccc(Cl)c(Cl)c2)CCN2CCCC2)cc1Cl?
GI50 (T47D): 3270 nM (inactive); GI50 (EKVX): 2050 nM (inactive); GI50 (ACHN): 1740 nM (inactive); GI50 (OVCAR-4): 1850 nM (inactive); GI50 (HL-60): 1390 nM (inactive); GI50 (SF-295): 1780 nM (inactive); GI50 (NCI-H226): 1670 nM (inactive); GI50 (NCI/ADR-RES): 1750 nM (inactive); GI50 (HCT-15): 1790 nM; GI50 (HCC 2998): 1680 nM (inactive); GI50 (TK-10): 1780 nM (inactive); GI50 (BT-549): 2040 nM (inactive); GI50 (RPMI-8226): 2160 nM (inactive); GI50 (SK-OV-3): 1780 nM (inactive); GI50 (SNB-75): 2230 nM (inactive); GI50 (HCT-116): 1690 nM (inactive); GI50 (A549): 1740 nM (inactive); GI50 (SR): 2010 nM (inactive); GI50 (OVCAR-5): 1600 nM (inactive); GI50 (Malme-3M): 1780 nM (inactive); GI50 (A498): 1770 nM (inactive); GI50 (CCRF-CEM): 1150 nM (inactive); GI50 (786-0): 1760 nM (inactive); GI50 (SF-268): 1730 nM (inactive); GI50 (HT-29): 1680 nM (inactive); GI50 (UO-31): 1640 nM (inactive); GI50 (MCF7): 1510 nM (inactive); GI50 (SW-620): 1720 nM (inactive); GI50 (OVCAR-3): 1730 nM (inactive); GI50 (MOLT-4): 1790 nM (inactive); GI50 (SF-539): 1800 nM (inactive); GI50 (PC-3): 1570 nM (inactive); GI50 (COLO 205): 1890 nM (inactive); GI50 (LOX IMVI): 1600 nM (inactive); GI50 (K562): 2250 nM (inactive); GI50 (OVCAR-8): 1680 nM (inactive); GI50 (Hs-578T): 1900 nM (inactive); GI50 (UACC-257): 1780 nM (inactive); GI50 (MDA-MB-435): 1440 nM (inactive); GI50 (U-251): 1600 nM (inactive); GI50 (IGROV-1): 1580 nM (inactive); GI50 (NCI-H460): 1860 nM (inactive); GI50 (CAKI-1): 1640 nM (inactive); GI50 (RXF 393): 1720 nM (inactive); GI50 (KM12): 1670 nM (inactive); GI50 (M14): 1670 nM (inactive); GI50 (SK-MEL-28): 1770 nM (inactive); GI50 (HOP-62): 1670 nM (inactive); GI50 (SN12C): 1870 nM (inactive); GI50 (MDA-N): 1870 nM (inactive); GI50 (SNB-19): 1820 nM (inactive); GI50 (SK-MEL-5): 1810 nM (inactive); GI50 (NCI-H522): 1640 nM (inactive); GI50 (MDA-MB-231): 1560 nM (inactive); GI50 (DU-145): 2010 nM (inactive); GI50 (UACC-62): 1630 nM (inactive); GI50 (SK-MEL-2): 1670 nM (inactive); GI50 (NCI-H23): 1820 nM (inactive)

Reference: ChEMBL document CHEMBL1201862, “PubChem BioAssay data set” (2004)
